Test results: ChEMBL document CHEMBL4312031, “Discovery of candesartan cilexetic as a novel neddylation inhibitor for suppressing tumor growth” (Eur J Med Chem, 2020)
The source made the active and inactive calls. The calls are words filed in the database; no cut-off is given here.

Key:
[1] = tested on: A549; assay: Antitumor activity against human A549 cells xenografted in nude mouse assessed as decrease in tumor size at 60 mg/kg, ip qd measured after 22 days; assay type: functional, organism-based
[2] = tested on: EKVX; assay: Antiproliferative activity against human EKVX cells measured after 48 hrs by CCK8 assay; assay type: functional, cell-based
[3] = tested on: NCI-H1299; assay: Antiproliferative activity against human H1299 cells measured after 72 to 96 hrs by CCK8 assay; assay type: functional, cell-based
[4] = tested on: HepG2; assay: Antiproliferative activity against human HepG2 cells measured after 48 hrs by CCK8 assay; assay type: functional, cell-based; conditions: HepG2, 48 h
[5] = tested on: T47D; assay: Antiproliferative activity against human T47D cells measured after 72 to 96 hrs by CCK8 assay; assay type: functional, cell-based
[6] = tested on: MCF7; assay: Antiproliferative activity against human MCF7 cells measured after 48 hrs by CCK8 assay; assay type: functional, cell-based; conditions: MCF7, 48 h
[7] = tested on: PLC; assay: Antiproliferative activity against human PLC cells measured after 48 hrs by CCK8 assay; assay type: functional, cell-based
[8] = tested on: MGC-803; assay: Antiproliferative activity against human MGC803 cells measured after 48 hrs by CCK8 assay; assay type: functional, cell-based; conditions: MGC-803, 48 h
[9] = tested on: NCI-H1299; assay: Antiproliferative activity against human H1299 cells measured after 48 hrs by CCK8 assay; assay type: functional, cell-based; conditions: NCI-H1299, 48 h
[10] = tested on: HepG2; assay: Antiproliferative activity against human HepG2 cells measured after 72 to 96 hrs by CCK8 assay; assay type: functional, cell-based
[11] = tested on: A549; assay: Antitumor activity against human A549 cells xenografted in nude mouse assessed as decrease in tumor weight at 60 mg/kg, ip qd measured after 22 days; assay type: functional, organism-based
[12] = tested on: Huh-7; assay: Antiproliferative activity against human HuH7 cells measured after 48 hrs by CCK8 assay; assay type: functional, cell-based; conditions: Huh-7, 48 h
[13] = target: T1, NEDD8/Cullin-1 (Homo sapiens) (UniProt Q13616+Q15843); assay: Inhibition of Nedd8-cullin1 (unknown origin) adduct formation assessed as decrease in cullin1 neddylation at 10 uM preincubated for 10 mins followed by ATP addition and measured after 30 mins by immunoblot analysis; assay type: protein assay
Target sequence in this assay (Q13616 whole entry, looked up): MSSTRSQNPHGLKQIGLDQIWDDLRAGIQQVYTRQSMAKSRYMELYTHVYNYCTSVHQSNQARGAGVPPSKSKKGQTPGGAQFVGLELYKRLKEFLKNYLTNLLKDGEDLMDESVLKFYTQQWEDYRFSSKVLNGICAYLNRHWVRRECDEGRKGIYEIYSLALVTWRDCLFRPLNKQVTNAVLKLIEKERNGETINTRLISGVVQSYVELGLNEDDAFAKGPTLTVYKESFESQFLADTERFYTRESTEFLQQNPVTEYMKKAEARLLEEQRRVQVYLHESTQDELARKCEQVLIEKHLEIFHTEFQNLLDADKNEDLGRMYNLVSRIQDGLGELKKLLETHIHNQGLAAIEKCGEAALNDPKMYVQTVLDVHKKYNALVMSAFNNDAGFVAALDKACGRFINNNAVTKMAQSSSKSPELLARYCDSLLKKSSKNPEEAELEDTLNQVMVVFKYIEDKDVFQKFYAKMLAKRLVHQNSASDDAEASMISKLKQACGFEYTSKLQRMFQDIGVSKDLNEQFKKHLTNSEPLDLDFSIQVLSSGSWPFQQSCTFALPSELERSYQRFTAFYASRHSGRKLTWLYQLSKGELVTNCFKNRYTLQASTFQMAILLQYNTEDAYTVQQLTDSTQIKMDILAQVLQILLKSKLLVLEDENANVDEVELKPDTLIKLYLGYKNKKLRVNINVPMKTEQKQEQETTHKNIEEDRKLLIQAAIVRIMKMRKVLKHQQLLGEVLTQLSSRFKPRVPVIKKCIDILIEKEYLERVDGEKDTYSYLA
Target sequence in this assay (Q15843 whole entry, looked up): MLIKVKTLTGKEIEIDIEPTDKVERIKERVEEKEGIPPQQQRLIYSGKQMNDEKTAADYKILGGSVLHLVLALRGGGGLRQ

[14] = tested on: MKN-45; assay: Antiproliferative activity against human MKN45 cells measured after 48 hrs by CCK8 assay; assay type: functional, cell-based; conditions: MKN-45, 48 h
[15] = tested on: MGC-803; assay: Antiproliferative activity against human MGC803 cells measured after 72 to 96 hrs by CCK8 assay; assay type: functional, cell-based
[16] = Toxicity in nude mouse xenografted with human A549 cells assessed as effect on body weight at 60 mg/kg, ip qd measured every 2 days; assay type: organism-based; conditions: in vivo, 48 h
[17] = tested on: MCF7; assay: Antiproliferative activity against human MCF7 cells measured after 72 to 96 hrs by CCK8 assay; assay type: functional, cell-based
[18] = tested on: T47D; assay: Antiproliferative activity against human T47D cells measured after 48 hrs by CCK8 assay; assay type: functional, cell-based
[19] = tested on: Huh-7; assay: Antiproliferative activity against human HuH7 cells measured after 72 to 96 hrs by CCK8 assay; assay type: functional, cell-based
[20] = tested on: EKVX; assay: Antiproliferative activity against human EKVX cells measured after 72 to 96 hrs by CCK8 assay; assay type: functional, cell-based
[21] = tested on: MKN-45; assay: Antiproliferative activity against human MKN45 cells measured after 72 to 96 hrs by CCK8 assay; assay type: functional, cell-based
[22] = tested on: PLC; assay: Antiproliferative activity against human PLC cells measured after 72 to 96 hrs by CCK8 assay; assay type: functional, cell-based
[23] = target: T1, NEDD8/Cullin-1 (Homo sapiens); assay: Inhibition of Nedd8-cullin1 (unknown origin) adduct formation assessed as decrease in cullin1 neddylation at 50 uM preincubated for 10 mins followed by ATP addition and measured after 30 mins by immunoblot analysis; assay type: protein assay
[24] = target: T1, NEDD8/Cullin-1 (Homo sapiens); assay: Inhibition of Nedd8-cullin1 adduct formation in human A549 cells assessed as decrease in cullin1 neddylation at 100 uM incubated for 6 to 12 hrs by Western blot analysis; assay type: cell-based
[25] = target: T2, NEDD8 activating enzyme (Homo sapiens, UniProt Q8TBC4); assay: Binding affinity to biotin-labeled GST-tagged NAE (unknown origin) incubated for 1 hr by SPR assay; assay type: protein-complex assay
T2 sequence (Q8TBC4 whole entry): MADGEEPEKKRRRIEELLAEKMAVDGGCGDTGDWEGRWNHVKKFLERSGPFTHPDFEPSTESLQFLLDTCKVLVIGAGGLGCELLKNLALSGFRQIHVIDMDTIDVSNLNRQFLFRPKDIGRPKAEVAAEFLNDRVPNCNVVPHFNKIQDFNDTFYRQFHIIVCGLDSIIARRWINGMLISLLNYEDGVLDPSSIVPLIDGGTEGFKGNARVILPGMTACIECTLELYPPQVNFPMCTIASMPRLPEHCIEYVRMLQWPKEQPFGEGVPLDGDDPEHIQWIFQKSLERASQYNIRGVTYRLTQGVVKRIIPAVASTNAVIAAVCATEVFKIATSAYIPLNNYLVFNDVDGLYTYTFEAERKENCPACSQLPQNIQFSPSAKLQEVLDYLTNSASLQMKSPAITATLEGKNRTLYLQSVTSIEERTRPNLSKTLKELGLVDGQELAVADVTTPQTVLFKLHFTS
T2 sequence (Q13564 whole entry): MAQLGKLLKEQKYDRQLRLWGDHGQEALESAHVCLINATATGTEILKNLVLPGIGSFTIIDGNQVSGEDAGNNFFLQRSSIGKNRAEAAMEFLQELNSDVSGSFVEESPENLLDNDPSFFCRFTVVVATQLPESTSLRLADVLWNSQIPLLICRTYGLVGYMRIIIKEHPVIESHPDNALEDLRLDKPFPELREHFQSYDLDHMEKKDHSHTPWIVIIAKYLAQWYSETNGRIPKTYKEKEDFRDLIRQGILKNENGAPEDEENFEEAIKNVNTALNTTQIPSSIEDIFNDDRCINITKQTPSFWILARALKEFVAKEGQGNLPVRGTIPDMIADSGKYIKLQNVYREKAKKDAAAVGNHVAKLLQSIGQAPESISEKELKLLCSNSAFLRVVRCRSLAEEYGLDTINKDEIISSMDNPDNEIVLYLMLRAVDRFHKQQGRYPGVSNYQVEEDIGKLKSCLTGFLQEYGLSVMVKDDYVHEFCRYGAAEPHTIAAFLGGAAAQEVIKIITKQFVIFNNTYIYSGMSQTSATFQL

[26] = Toxicity in nude mouse xenografted with human A549 cells assessed as effect on body weight at 30 to 60 mg/kg, ip qd measured every 2 days; assay type: organism-based; conditions: in vivo, 48 h
[27] = target: T1, NEDD8/Cullin-1 (Homo sapiens); assay: Inhibition of Nedd8-cullin1 adduct formation in human A549 cells assessed as decrease in cullin1 neddylation at 60 to 80 uM measured after 6 hrs by Western blot analysis; assay type: cell-based
Target sequence in this assay (Q13616 whole entry, looked up): as the sequence (Q13616 whole entry, looked up) above
Target sequence in this assay (Q15843 whole entry, looked up): as the sequence (Q15843 whole entry, looked up) above

[28] = target: T1, NEDD8/Cullin-1 (Homo sapiens); assay: Inhibition of Nedd8-cullin1 adduct formation in human A549 cells assessed as decrease in cullin1 neddylation at 75 uM measured after 6 hrs by Western blot analysis; assay type: cell-based
Target sequence in this assay (Q13616 whole entry, looked up): as the sequence (Q13616 whole entry, looked up) above
Target sequence in this assay (Q15843 whole entry, looked up): as the sequence (Q15843 whole entry, looked up) above

[29] = target: T1, NEDD8/Cullin-1 (Homo sapiens); assay: Inhibition of Nedd8-cullin1 adduct formation in human A549 cells assessed as decrease in cullin1 neddylation at 50 uM measured after 6 hrs by Western blot analysis; assay type: cell-based
Target sequence in this assay (Q13616 whole entry, looked up): as the sequence (Q13616 whole entry, looked up) above
Target sequence in this assay (Q15843 whole entry, looked up): as the sequence (Q15843 whole entry, looked up) above

With `NS(=O)(=O)OC[C@@H]1C[C@@H](n2ccc3c(N[C@H]4CCc5ccccc54)ncnc32)C[C@@H]1O` [PEVONEDISTAT] the Activity [1] was “Active”, the IC50 [2] was over 10000 nM and the IC50 [3] was 300 to 1200 nM. For the same compound, the IC50 [4] was over 10000 nM, the IC50 [5] was 300 to 1200 nM and the IC50 [6] was over 10000 nM. For the same compound, the IC50 [7] was over 10000 nM, the IC50 [8] was over 10000 nM and the IC50 [9] was over 10000 nM. The IC50 [10] was 300 to 1200 nM, the Activity [11] was “Active” and the IC50 [12] was over 10000 nM. The inhibition [13] was “Active”, the IC50 [14] was over 10000 nM and the IC50 [15] was 300 to 1200 nM. For the same compound, the Activity [16] was “Non-Toxic”, the IC50 [17] was 300 to 1200 nM and the IC50 [18] was over 10000 nM. It also gave an IC50 [19] of 300 to 1200 nM, an IC50 [20] of 300 to 1200 nM and an IC50 [21] of 300 to 1200 nM. The IC50 [22] was 300 to 1200 nM.
For `CCCCCCCCCCCCCCCC[n+]1ccccc1`, the inhibition [23] was “Active” and the inhibition [24] was “inactive”.
In the case of `CCOc1nc2cccc(C(=O)OC(C)OC(=O)OC3CCCCC3)c2n1Cc1ccc(-c2ccccc2-c2nnn[nH]2)cc1` (stereo not drawn) [CANDESARTAN CILEXETIL], the Kd [25] is reported as 195000 nM and the Activity [26] is reported as “Non-Toxic”.
In the case of `Clc1ccc(CCNC2CCN(Cc3ccccc3)CC2)c(Cl)c1`, the inhibition [27] is reported as “Active”.
For BISMUTH SUBCITRATE POTASSIUM, the inhibition [23] was “Active” and the inhibition [24] was “inactive”.
For `O=C1c2c(O)ccc(O)c2C(=O)c2c(NCCNCCO)ccc(NCCNCCO)c21`, the inhibition [28] was “Active” and the inhibition [29] was “inactive”.
With `CN1CCN(CCCN2c3ccccc3Sc3ccc(C(F)(F)F)cc32)CC1` the inhibition [23] was “Active” and the inhibition [24] was “inactive”.
